Measured values as given in article PMC3486884 (PLoS Pathogens, 2012).
Read-outs that look alike come from different tables or passages of the source.

System: influenza virus (strain A/Puerto Rico/8/34/H1N1 depicted PR8)
Details: n=2

| Structure (SMILES) | relative infection (0.1 µM) | relative infection (0.3 µM) | relative infection (0.9 µM) | relative infection (2.8 µM) | relative infection (8.3 µM) | relative infection (25.0 µM) |
| --- | --- | --- | --- | --- | --- | --- |
| O=C(Nc1ccc([N+](=O)[O-])cc1Cl)c1cc(Cl)cc(Cl)c1O [TVB-1326] | 1.02 | 0.94 | 0.90 | 0.78 | 0.68 | 0.01 |
| O=C(Nc1ccc([N+](=O)[O-])cc1Cl)c1cc(Cl)ccc1OCCOc1ccccc1 [TVB-1329] | 0.99 | 0.98 | 1.04 | 0.99 | 0.69 | 0.04 |
| O=C(Nc1ccc([N+](=O)[O-])cc1Cl)c1ccccc1O [TVB-1332] | 1.04 | 1.06 | 1.04 | – | 0.02 | 0.00 |
| CS(=O)(=O)c1ccc(NC(=O)c2cc(Cl)ccc2O)c(Cl)c1 [TVB-1338] | 0.81 | 0.81 | 0.78 | 0.82 | 0.78 | – |
